Experimental data as given in ChEMBL document CHEMBL1158330, “Two new puriniums and three new pyrimidines from Heterostemma brownii” (J Nat Prod, 1997).

What was measured:
[1] = test system: Huh-7; assay: Cytotoxicity against human HuH7 cells at 100 nM after 72 hrs by MTT assay relative to control; format: functional; settings: Huh-7, 72 h
[2] = test system: Huh-7; assay: Cytotoxicity against human HuH7 cells after 72 hrs by MTT assay; format: functional, cell-based; settings: Huh-7, 72 h
[3] = test system: MOLT-4; assay: Cytotoxicity against human MOLT4 cells at 1000 uM after 72 hrs by MTT assay relative to control; format: functional; settings: MOLT-4, 72 h
[4] = test system: MOLT-4; assay: Cytotoxicity against human MOLT4 cells at 100 uM after 72 hrs by MTT assay relative to control; format: functional; settings: MOLT-4, 72 h
[5] = test system: MOLT-4; assay: Cytotoxicity against human MOLT4 cells at 10 uM after 72 hrs by MTT assay relative to control; format: functional; settings: MOLT-4, 72 h
[6] = test system: MOLT-4; assay: Cytotoxicity against human MOLT4 cells at 1 uM after 72 hrs by MTT assay relative to control; format: functional; settings: MOLT-4, 72 h
[7] = test system: MOLT-4; assay: Cytotoxicity against human MOLT4 cells at 100 nM after 72 hrs by MTT assay relative to control; format: functional; settings: MOLT-4, 72 h
[8] = test system: MOLT-4; assay: Cytotoxicity against human MOLT4 cells after 72 hrs by MTT assay; format: functional, cell-based; settings: MOLT-4, 72 h
[9] = test system: HL-60; assay: Cytotoxicity against human HL60 cells at 1000 uM after 72 hrs by MTT assay relative to control; format: functional; settings: HL-60, 72 h
[10] = test system: HL-60; assay: Cytotoxicity against human HL60 cells at 100 uM after 72 hrs by MTT assay relative to control; format: functional; settings: HL-60, 72 h
[11] = test system: HL-60; assay: Cytotoxicity against human HL60 cells at 10 uM after 72 hrs by MTT assay relative to control; format: functional; settings: HL-60, 72 h
[12] = test system: HL-60; assay: Cytotoxicity against human HL60 cells at 1 uM after 72 hrs by MTT assay relative to control; format: functional; settings: HL-60, 72 h
[13] = test system: HL-60; assay: Cytotoxicity against human HL60 cells at 100 nM after 72 hrs by MTT assay relative to control; format: functional; settings: HL-60, 72 h
[14] = test system: HL-60; assay: Cytotoxicity against human HL60 cells after 72 hrs by MTT assay; format: functional, cell-based; settings: HL-60, 72 h
[15] = test system: K562; assay: Cytotoxicity against human K562 cells at 1000 uM after 72 hrs by MTT assay relative to control; format: functional; settings: K562, 72 h
[16] = test system: K562; assay: Cytotoxicity against human K562 cells at 100 uM after 72 hrs by MTT assay relative to control; format: functional; settings: K562, 72 h
[17] = test system: K562; assay: Cytotoxicity against human K562 cells at 10 uM after 72 hrs by MTT assay relative to control; format: functional; settings: K562, 72 h
[18] = test system: K562; assay: Cytotoxicity against human K562 cells at 1 uM after 72 hrs by MTT assay relative to control; format: functional; settings: K562, 72 h
[19] = test system: K562; assay: Cytotoxicity against human K562 cells at 100 nM after 72 hrs by MTT assay relative to control; format: functional; settings: K562, 72 h
[20] = test system: K562; assay: Cytotoxicity against human K562 cells after 72 hrs by MTT assay; format: functional, cell-based; settings: K562, 72 h
[21] = test system: Huh-7; assay: Cytotoxicity against human HuH7 cells at 100 uM after 72 hrs by MTT assay relative to control; format: functional; settings: Huh-7, 72 h
[22] = Cytotoxicity against human HCE6 cells at 1000 uM after 72 hrs by MTT assay relative to control; format: functional; settings: HCE6, 72 h
[23] = Cytotoxicity against human HCE6 cells at 100 uM after 72 hrs by MTT assay relative to control; format: functional; settings: HCE6, 72 h
[24] = Cytotoxicity against human HCE6 cells at 10 uM after 72 hrs by MTT assay relative to control; format: functional; settings: HCE6, 72 h
[25] = Cytotoxicity against human HCE6 cells at 1 uM after 72 hrs by MTT assay relative to control; format: functional; settings: HCE6, 72 h
[26] = Cytotoxicity against human HCE6 cells at 100 nM after 72 hrs by MTT assay; format: functional; settings: HCE6, 72 h
[27] = Cytotoxicity against human HCE6 cells after 72 hrs by MTT assay; format: functional, cell-based; settings: HCE6, 72 h
[28] = test system: Huh-7; assay: Cytotoxicity against human HuH7 cells at 1000 uM after 72 hrs by MTT assay relative to control; format: functional; settings: Huh-7, 72 h
[29] = test system: Huh-7; assay: Cytotoxicity against human HuH7 cells at 10 uM after 72 hrs by MTT assay relative to control; format: functional; settings: Huh-7, 72 h
[30] = test system: Huh-7; assay: Cytotoxicity against human HuH7 cells at 1 uM after 72 hrs by MTT assay relative to control; format: functional; settings: Huh-7, 72 h

Row | Compound | viability at 0.1 µM [1] [%] | IC50 [2] [µM] | viability at 1000 µM [3] [%] | viability at 100 µM [4] [%] | viability at 10 µM [5] [%] | viability at 1 µM [6] [%] | viability at 0.1 µM [7] [%] | IC50 [8] [µM] | viability at 1000 µM [9] [%] | viability at 100 µM [10] [%] | viability at 10 µM [11] [%] | viability at 1 µM [12] [%] | viability at 0.1 µM [13] [%] | IC50 [14] [µM] | viability at 1000 µM [15] [%] | viability at 100 µM [16] [%] | viability at 10 µM [17] [%] | viability at 1 µM [18] [%] | viability at 0.1 µM [19] [%] | IC50 [20] [µM] | further results
1 | COc1nc(N(C)C)nc2c1[n+](C)cn2C [HETEROMINE A] | 97.3 | 71.8 | 5.6 | 24.8 | 54.8 | 90.7 | 94.7 | 14.4 | 5.7 | 8.2 | 42.7 | 99.3 | 94.5 | 7.43 | 5.9 | 33.5 | 49.7 | 107 | 94.3 | 9.88 | viability at 100 µM [21]: 43.1%; viability at 1000 µM [22]: 1.7%; viability at 100 µM [23]: 8.2%; viability at 10 µM [24]: 26.2%; viability at 1 µM [25]: 87.4%; viability at 0.1 µM [26]: 92.4%; IC50 [27]: 4.08 µM; viability at 1000 µM [28]: 11.1%; viability at 10 µM [29]: 91.1%; viability at 1 µM [30]: 102%
2 | CNc1nc(OC)c2c(n1)n(C)c[n+]2C [HETEROMINE B] | 104 | 464 | 17.4 | 35.9 | 86 | 91 | 107 | 52.3 | 14.9 | 20.3 | 72.6 | 99.1 | 114 | 27 | 27.6 | 40.4 | 88.2 | 95.5 | 96.8 | 62.9 | viability at 100 µM [21]: 92.5%; viability at 1000 µM [22]: 10.6%; viability at 100 µM [23]: 22.1%; viability at 10 µM [24]: 85%; viability at 1 µM [25]: 82.2%; viability at 0.1 µM [26]: 82.2%; IC50 [27]: 36 µM; viability at 1000 µM [28]: 28.8%; viability at 10 µM [29]: 94.3%; viability at 1 µM [30]: 103%
